Test results: US20110287948A1, “MEASUREMENT OF MATERIAL PROPERTIES AND RELATED METHODS AND COMPOSITIONS BASED ON CYTOADHERENCE” (Massachusetts Institute of Technology, priority 2010, published 2011)
Entries after “also recorded” stand apart in the source; their conditions may differ.

Legend:
[1] = system: P. falciparum-infected RBCs (iRBCs) and co-cultured uninfected RBCs (uRBCs); experiment: Microfluidic deformability cytometer: RBC mobility after artesunate drug treatment; type: cell-based, human; conditions: for separation resolution between iRBCs and uRBCs after drug treatment: after artesunate treatment vs untreated
Excerpt: The device used in this example comprises a series of equally spaced triangular pillar arrays with pore sizes ranging from 2.5 to 4 um (FIG. 55A illustrates the case of 3 um pore size). Compared to the diameter of an average RBC (˜7.5 um), the smaller pore sizes are designed to impose similar mechanical constraints on the cells as if they are passing through blood capillaries and splenic meshwork. Driven by constant pressure gradient in the sub-Pascal-per-micrometer range, RBCs are able to deform substantially at each constriction and traverse along the channel. The dynamic deformability of RBCs is then characterized by their mobility: the ability to deform repeatedly in order to pass through multiple constrictions in series.
FIG. 55A depicts an experimental schematic of the microfluidic system. A heating chamber (Olympus) was mounted to the inverted microscope stage. Four heaters for the inner water bath, microscope stage, chamber top, and lens were designed to accurately control the ambient temperature inside the chamber. The PDMS-glass bonded device consists of the inlet and outlet reservoirs and main channels with triangular pillar arrays. It was placed inside the heating chamber with only the inlet reservoir connecting to an external syringe via a 20 cm-tubing. The reservoirs were 500×500 μm^2 squares with 20 μm-interspacing cylindrical pillar arrays; these pillar arrays could pre-filter white blood cells from whole blood, allowing only RBCs to pass through the main channels. Each of the parallel channels was 10 pillars wide and 200 pillars long. Along the flow direction, the inter-pillar spacing was 10 μm. This spacing allows deformed cells to recover and ready for subsequent deformations. Perpendicular to the flow direction, the pore size varied from 2.5 to 4 μm for different channels. Cells experience different levels of deformation when passing through these pores.
FIG. 55B presents microscopic screenshots illustrating both iRBCs and co-cultured uRBCs moving in the microchannel at different temperature conditions. The uninfected cells appear as dark shadows indicated by blue arrows, and the infected cells with thiazole orange (TO) staining appear as bright dots indicated by white arrows. The mobility of individual cells can then be derived by recording the time period for each cell passing through 10 constrictions in series (i.e. equivalent to 200 μm distance travelled). In this example, cell mobility is used to characterize the dynamic deformability of individual RBCs.
The deformability of both iRBCs and uRBCs were measured at 2, 4 and 6 hours after artesunate drug treatment (FIG. 60). A synchronized culture of rings with ˜15% parasitemia was resuspended at 0.1% hematocrit in malaria culture medium containing 0.01, 0.05 or 0.1 μg/ml of artesunate.
Layout program CleWin3.0 was used to design the microfluidic device, which consists of a 500×500 μm^2 inlet reservoir, a 500×500 μm^2 outlet reservoir, and parallel capillary channels with triangular pillar arrays (FIG. 55A). Three different pore-size of 2.5, 3.0 and 4.0 μm were designed for the capillary channels to test optimum deformation condition for the experiment. A silicon mold of the device was made using standard silicon processing techniques. The photolithography step was done using a 5× reduction step-and-repeat projection stepper (Nikon NSR2005i9, Nikon Prevision) and reactive-ion etching (RIE) techniques were used to give the mold a final depth of 4.2 μm. Final device was then casted from the silicon mold using polydimethylsiloxane (PDMS) and was sealed by a glass slide using oxygen plasma.
P. falciparum 3D7A parasites (from Malaria Research and Reference Reagent Source, American Type Culture Collection) were cultured in leukocyte-free human RBCs (Research Blood Components, Brighton Mass.) in RPMI 1640 complete medium as described (Trager and Jensen J. parasitol. 2005). […]

RBCs = experiment: Deformability cytometer: velocity of glutaraldehyde-treated RBCs through constrictions; type: cell-based, human
Excerpt: The device design includes periodically spaced, triangle-shaped pillars and the gaps between these pillars result in well-controlled constrictions for RBCs to pass. The height of the device was set to 4.2 μm. RBCs were forced to assume a flat orientation before entering each constriction. This height, in addition to filters at the reservoirs, prevented white blood cells from entering the device, and permitted diluted whole blood to be used directly.
A mold of the device was made on a silicon wafer using photolithography and reactive-ion etching techniques. A 5× reduction step-and-repeat projection stepper (Nikon NSR2005i9, Nikon Precision) was used for patterning. The spacing between pillars was 3 μm, and the depth of the device was 4.2 μm. The device was made using standard PDMS casting protocols and bonded to a glass slide.
In experiments involving blood, 1 μl of whole blood (−50% hematocrit) was diluted in 100 μl of the PBS-pluronic-BSA solution for all of the experiments. In experiments involving parasites that express GFP, no further treatment was performed. In experiments involving healthy RBCs, 1 μl of whole blood (Research Blood Components, Brighton, Mass.), 1 μl of 50 μg/ml of Cell Tracker Orange (Invitrogen, Carlsbad, Calif.), and 98 μl of PBS were mixed with the indicated concentration of glutaraldehyde and allowed to sit for 30 minutes. The sample was then washed 3 times with the PBS-Pluronic-BSA solution. In experiments involving reticulocytes, 1 μl of whole blood, 89 μl of the PBS-Pluronic-BSA solution, and 10 μl of 1×10^−6M thiazole orange were mixed and allowed to sit for 20 minutes before starting experiments. Videos were obtained in which reticulocytes appear as uniformly fluorescent cells under the GFP filter set, while mature RBCs appear as shadows.
The PBS-Pluronic-BSA solution was pumped through the device for 30 minutes to coat the device walls with Pluronic and BSA. The RBC-PBS-Pluronic-BSA suspension was then injected into the device. Differences in pressure between the two reservoirs were generated hydrostatically by a difference in water column height. […]

| Structure (SMILES) | mobility decrease at earlier time points ([1]; 2 and 4 hours after artesunate treatment) | mobility decrease ([1]; 6 hours after artesunate treatment, 0.01, 0.05 or 0.1 μg/ml, iRBCs and uRBCs) | dose dependence of mobility changes ([1]; after 4 hour drug treatment, dosage range 0.01 to 0.1 μg/ml) | separation resolution between iRBCs and uRBCs after drug treatment [1] | separation resolution between iRBCs and uRBCs after drug treatment ([1]; listed as Artesunate) | effect on RBC deformability (stiffening) ([1]; iRBCs and uRBCs after artesunate treatment) | passage of RBCs into the channel (RBCs; glutaraldehyde concentrations greater than 0.003%) | RBCs that passed through the channels (RBCs; glutaraldehyde less than 0.002%, treatment for 30 minutes) | RBC stiffness / velocity with increasing concentration (RBCs; increasing glutaraldehyde concentration, 30 minutes, approx. 0.61 Pa/μm) |
| --- | --- | --- | --- | --- | --- | --- | --- | --- | --- |
| C[C@H]1[C@H](OC(=O)CCC(=O)O)O[C@@H]2O[C@@]3(C)CC[C@H]4[C@H](C)CC[C@@H]1[C@@]24OO3 [artesunate] | smaller and less pronounced mobility decrease | 30%-50 | no statistically significant dose dependence | almost doubled | doubled | stiffening effect on both iRBCs and uRBCs; also recorded: the drop in iRBC deformability is more precipitous than in uRBC | – | – | – |
| O=CCCCC=O [glutaraldehyde] | – | – | – | – | – | – | most RBCs were held up at the entrance to the channel, unable to deform | more than 95% | progressively stiffer with decreasing velocity |
